Reference: US20260274922A1, “SYNTHETIC ESTROGEN RECEPTOR (ER)-DERIVED PEPTIDE” (THE TEXAS A&M UNIVERSITY SYSTEM, priority 2023, published 2026)
Where no end group is shown, it is not given here. The star is where a group is joined. FITC = O=C1OC2(c3ccc(O)cc3Oc3cc(O)ccc32)c2ccc(NC(=S)*)cc21

Experiments:
[1] = test system: insulin signaling (IRS1, pAKT); experiment: Insulin sensitivity in ERα deficient primary mouse hepatocytes; type: cell-based
Protocol: Primary hepatocytes isolation and cell culture. Primary hepatocytes were isolated. Male mice at age of 8-12 weeks were infused with a perfusion buffer A (calcium and magnesium-free HBSS supplemented with 10 mM HEPES, […], 1 mM glucose, and 1% penicillin-streptomycin, pH 7.4) through portal vein for 6-8 min. Then perfusion buffer A was changed to buffer B (calcium and magnesium-free HBSS supplemented with 10 mM HEPES, 1 mM CaCl2), 1 mM glucose, 1% penicillin-streptomycin, and 0.5 mg/mL collagenase II, pH 7.4). […] Liver cells were suspended and passed through a 70 μm cell strainer, followed by centrifuge at 1700 rpm for 2 min. Pellets were resuspended with Percoll at final concentration of 36% and centrifuged at 1800 rpm for 6 min. The hepatocyte pellet was washed and suspended with DMEM supplemented with 10% FBS and 1% penicillin-streptomycin in collagen-coated plates. The HepG2 cell line was purchased from Abcam and cultured with DMEM medium supplemented with 10% FBS and 1% penicillin-streptomycin in collagen-coated plates. The human embryo kidney (HEK) 293 cell line was purchased from Sigma and cultured with DMEM medium supplemented with 10% FBS and 1% penicillin-streptomycin. FBS-free DMEM medium was used to culture cells during the experiments.
(§1) Co-immunoprecipitation and Western blotting analysis. […] Protein bands were detected using a ChemiDoc image system.

[2] = test system: diet-induced obesity (DIO) mice; type: in vivo, mouse
Protocol: Obese mouse models and AF1 peptide treatment. For the high-fat diet (HFD)-induced obese mouse model, the 6-8-week-old male mice were fed with HFD (HFD; 60% kcal from fat, D12492; Research diet, New Brunswick, NJ) for 11 weeks. Then mice received 5 mg/kg body weight control or AF1 peptide through retro orbital injection (twice per week; 5 weeks). For genetic obesity mouse model, the 8-week-old db/db mice were administered with 5 mg/kg body weight control or AF1 peptide through retro orbital injection (twice per week; 5 weeks). Glucose tolerance and insulin tolerance tests were performed in the fourth and fifth week after treatment, respectively. Body composition was measured using EchoMRI™ one day before sacrificing the mice.
Glucose and insulin tolerance tests. For glucose tolerance tests, mice were fasted for 16 h and intraperitoneally (i.p.) injected with dextrose (1 g/kg body weight for mice fed with regular diet; 0.5 g/kg body weight for db/db mice or mice fed with HFD). For insulin tolerance tests, mice were fasted for 6 h and i.p. injected with insulin solution (1 U/kg body weight for male mice; 0.75 U/kg body weight for female mice). Blood glucose levels were measured using glucometer at indicated time points.
RNA extraction and quantitative real-time PCR. Total RNA was extracted from livers or primary hepatocytes using TRIzol (Invitrogen, Thermo Fisher Scientific), purified with chloroform, 80% ethanol, isopropanol, and RNA column, eluted with RNase free water, and reverse transcribed into cDNA using iScript Reverse Transcription Supermix (Bio-Rad, Hercules, CA). Quantitative real-time PCR (qPCR) was conducted using SsoAdvanced Universal SYBR Green Supermix (Bio-Rad, Hercules, CA) on CFX384 real-time PCR detection system (Bio-Rad, Hercules, CA). Q-PCR started with 95° C. incubation for 3 min, followed by 39 cycles of 95° C. for 5 s and 60° C. for 30 s. The threshold cycle (CT) values were obtained and used to calculate the relative transcriptional level of target genes by 2^−ΔΔCT method with Cyclophilin (Cyp) as an internal control. […].
Hematoxylin and eosin staining and Oil Red O staining. Livers were embedded into paraffin after being fixed by PFA, and then cut into 5 μm sections. After deparaffinization and hydration, liver sections were stained with hematoxylin for 5 min. After differentiation by 1% acid alcohol, liver sections were stained with 1% eosin for 3 min. Finally, liver sections were dehydrated and mounted with mounting media. For Oil Red O staining, liver frozen sections were prepared and fixed in 10% neutral buffered formalin for 10 min after air dry for 1 h. Liver sections were stained in Oil Red O working solution for 15 min after a quick dip in 60% isopropanol. Liver sections were then stained with hematoxylin for 3 min and covered with aqueous mounting gel. Liver sections were observed using slide scanner (Leica).
as §1
Serum lipid profile analysis. Serum triglyceride, AST, ALT, cholesterol, LDL, HDL, NEFA, and ALP were measured using DxC 700 AU Chemistry Analyzer (Beckman Coulter).
Serum insulin and liver triglyceride analysis. Serum insulin and triglyceride levels were measured by using mouse insulin ELISA kit (Mercodia) and triglyceride assay kit (Abcam), respectively.

[3] = ERα deficient primary hepatocytes
[4] = DIO mice, 5 mg/kg twice per week, 5 weeks
[5] = DIO mice, 5 mg/kg twice per week, 5 weeks, vs CNTR

Q: “YGRKKRRQRRRTKASGMALLHEPLNRPQLKIPLERDSSKPAVYNY ({FITC}-YGRKKRRQRRRTKASGMALLHEPLNRPQLKIPLERDSSKPAVYNY) [AF1 peptide]” was tested. Which “increase in IRS1 protein levels” value [1, 3] did it give?
A: The value was 80%.

Q: And the “increase in pAKT-S473 protein levels” value [1, 3]?
A: Its value is 46%.

Q: And the “increase in pAKT-T308 protein levels” value [1, 3]?
A: The value was 50%.

Q: And the “rescue of ERα deficiency-induced insulin resistance” value ([1]; compared to ERαF/F hepatocytes)?
A: The value was “partially rescued”.

Q: And the “decrease in serum NEFA” value ([2]; DIO mice)?
A: The value was 21%.

Q: What about the “decrease in serum cholesterol” value ([2]; DIO mice) of the same sequence?
A: Its value is 8%.

Q: What about the “decrease in serum triglyceride” value ([2]; DIO mice) of the same sequence?
A: Its value is 21%.

Q: What about the glucose tolerance ([2]; DIO mice) of the same sequence?
A: The glucose tolerance was “significantly improved”.

Q: What about the insulin sensitivity ([2]; DIO mice) of the same sequence?
A: The insulin sensitivity was “significantly improved”.

Q: And the “serum HDL” value ([2]; DIO mice)?
A: Its value is “decreases”.

Q: What about the “serum LDL” value ([2]; DIO mice) of the same sequence?
A: Its value is “decreases”.

Q: And the serum insulin ([2]; DIO mice)?
A: The serum insulin was “not changed”.

Q: What about the overnight fasting blood glucose [2, 4] of the same sequence?
A: The overnight fasting blood glucose was 85.4 ± 0.2 mg/dL.

Q: What about the “random feeding blood glucose” value [2, 4] of the same sequence?
A: Its value is 154.2 ± 4.7 mg/dL.

Q: And the “decrease in overnight fasting blood glucose” value [2, 5]?
A: Its value is 20%.

Q: And the “decrease in random feeding blood glucose” value [2, 5]?
A: The value was 12%.

Q: And the liver fat accumulation ([2]; DIO mice, H&E staining)?
A: Its liver fat accumulation is “ameliorated”.

Q: And the “decrease in pIRS1-302” value ([2]; DIO mice, liver)?
A: The value was 32%.

Q: And the “increase in IRS1” value ([2]; DIO mice, liver)?
A: Its value is 49%.

Q: And the “increase in pAKT-308” value ([2]; DIO mice, liver)?
A: Its value is 51%.

Q: And the “increase in pAKT-S473” value ([2]; DIO mice, liver)?
A: Its value is 100%.

Q: What about the “mRNA expression of FAO gene (Hadha)” value ([2]; DIO mice, liver, q-PCR) of the same sequence?
A: The value was “increased”.

Q: What about the “mRNA expression of gluconeogenic gene (Pck1)” value ([2]; DIO mice, liver, q-PCR) of the same sequence?
A: The value was “significantly decreased”.

Q: What about the “mRNA expression of inflammatory cytokine (Il6)” value ([2]; DIO mice, liver, q-PCR) of the same sequence?
A: Its value is “significantly decreased”.

Q: And the “mRNA expression of lipogenic gene (Fasn)” value ([2]; DIO mice, liver, q-PCR)?
A: The value was “significantly decreased”.

Q: And the “serum ALP” value ([2]; mouse, in vivo)?
A: Its value is “not changed”.

Q: What about the “serum ALT” value ([2]; mouse, in vivo) of the same sequence?
A: Its value is “not changed”.

Q: And the “serum AST” value ([2]; mouse, in vivo)?
A: Its value is “not changed”.
